Biological target: T1, small-conductance Ca2+-activated K+ channels (SK channels, subtype 2) (Homo sapiens, UniProt Q9H2S1)
T1 construct: expressed in transfected cells; host or cells: HEK293
Assay: whole-cell patch-clamp of ionic current through SK2 channels in HEK293 cells (SC100)
Format: cell-based
Settings: concentration that increases the basal current by 100%; HEK293 cells expressing SK2 channels
In short: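 Whole-cell patch-clamp recording of current in HEK293 cells expressing SK2 channels. SC100 is the compound concentration that increases basal current by 100%.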

Row | SC100 | Compound
1 | + (+ means >1 uM) | COC(=O)N1CCC1COc1cc(NC2CCC(F)(F)CC2)nc(-n2ccc(C(F)F)n2)n1 (stereo not shown) [Compound 314, methyl 2-(((6-((4,4-difluorocyclohexyl)amino)-2-(3-(difluoromethyl)-1H-pyrazol-1-yl)pyrimidin-4-yl)oxy)methyl)azetidine-1-carboxylate]
2 | + (+ means >1 uM) | CC(O)c1ccn(-c2nc(NC3CCC(F)(F)CC3)cc(OC3CN(C(=O)C(C)(C)C)C3)n2)n1 (stereo not shown) [Compound 315, 1-(3-((6-((4,4-difluorocyclohexyl)amino)-2-(3-(1-hydroxyethyl)-1H-pyrazol-1-yl)pyrimidin-4-yl)oxy)azetidin-1-yl)-2,2-dimethylpropan-1-one]
3 | +++ (+++ means <200 nM) | CC(C)(C)C(=O)N1CC(Oc2cc(NC3CCC(F)(F)CC3)nc(-c3nc(CF)cs3)n2)C1 [Compound 316, 1-(3-((6-((4,4-difluorocyclohexyl)amino)-2-(4-(fluoromethyl)thiazol-2-yl)pyrimidin-4-yl)oxy)azetidin-1-yl)-2,2-dimethylpropan-1-one]
4 | +++ (+++ means <200 nM) | Cc1cn(-c2nc(NC3CCC(F)(F)CC3)cc(OC3CN(C(=O)C(C)(C)C)C3)n2)nc1C(F)F [Compound 317, 1-(3-((6-((4,4-difluorocyclohexyl)amino)-2-(3-(difluoromethyl)-4-methyl-1H-pyrazol-1-yl)pyrimidin-4-yl)oxy)azetidin-1-yl)-2,2-dimethylpropan-1-one]
5 | ++ (++ means 200 nM-1000 nM) | COC(=O)N1CC(Oc2cc(NC3CCC(F)(F)CC3)nc(-n3cc(C)c(C(F)F)n3)n2)C1 [Compound 318, methyl 3-((6-((4,4-difluorocyclohexyl)amino)-2-(3-(difluoromethyl)-4-methyl-1H-pyrazol-1-yl)pyrimidin-4-yl)oxy)azetidine-1-carboxylate]
6 | + (+ means >1 uM) | O=C(N1CC(Oc2cc(NC3CCC(F)(F)CC3)nc(-n3ccc(CO)n3)n2)C1)C(F)(F)F [Compound 319, 1-(3-((6-((4,4-difluorocyclohexyl)amino)-2-(3-(hydroxymethyl)-1H-pyrazol-1-yl)pyrimidin-4-yl)oxy)azetidin-1-yl)-2,2,2-trifluoroethan-1-one]
7 | ++ (++ means 200 nM-1000 nM) | Cc1csc(-c2nc(NC3CCC(F)(F)CC3)cc(N3CCOCC3)n2)n1 [Compound 320, N-(4,4-difluorocyclohexyl)-2-(4-methylthiazol-2-yl)-6-morpholinopyrimidin-4-amine]
8 | + (+ means >1 uM) | O=C1CCCN1Cc1cc(NC2CCC(F)(F)CC2)nc(-n2ccc(CF)n2)n1 [Compound 321, 1-((6-((4,4-difluorocyclohexyl)amino)-2-(3-(fluoromethyl)-1H-pyrazol-1-yl)pyrimidin-4-yl)methyl)pyrrolidin-2-one]
9 | ++ (++ means 200 nM-1000 nM) | CC(C)(C)C(=O)N1CC(Oc2cc(NC3CCC(F)(F)CC3)nc(-c3nc(C(F)(F)F)cs3)n2)C1 [Compound 322, 1-(3-((6-((4,4-difluorocyclohexyl)amino)-2-(4-(trifluoromethyl)thiazol-2-yl)pyrimidin-4-yl)oxy)azetidin-1-yl)-2,2-dimethylpropan-1-one]
10 | ++ (++ means 200 nM-1000 nM) | O=C(N1CC(Oc2cc(NC3CCC(F)(F)CC3)nc(-c3nc(C(F)(F)F)cs3)n2)C1)C(F)(F)F [Compound 323, 1-(3-((6-((4,4-difluorocyclohexyl)amino)-2-(4-(trifluoromethyl)thiazol-2-yl)pyrimidin-4-yl)oxy)azetidin-1-yl)-2,2,2-trifluoroethan-1-one]
11 | ++ (++ means 200 nM-1000 nM) | COC(=O)N1CC(Oc2cc(NC3CCC(F)(F)CC3)nc(-c3nc(C(F)(F)F)cs3)n2)C1 [Compound 324, methyl 3-((6-((4,4-difluorocyclohexyl)amino)-2-(4-(trifluoromethyl)thiazol-2-yl)pyrimidin-4-yl)oxy)azetidine-1-carboxylate]
12 | + (+ means >1 uM) | CC(C)C1CC(=O)N1Cc1cc(NC2CCC(F)(F)CC2)nc(-n2ccc(CF)n2)n1 (stereo not shown) [Compound 325, 1-((6-((4,4-difluorocyclohexyl)amino)-2-(3-(fluoromethyl)-1H-pyrazol-1-yl)pyrimidin-4-yl)methyl)-4-isopropylazetidin-2-one]
13 | ++ (++ means 200 nM-1000 nM) | CC1(O)CN(c2cc(NC3CCC(F)(F)CC3)nc(-n3ccc(CF)n3)c2)C1 [Compound 326, 1-(2-((4,4-difluorocyclohexyl)amino)-6-(3-(fluoromethyl)-1H-pyrazol-1-yl)pyridin-4-yl)-3-methylazetidin-3-ol]
14 | + (+ means >1 uM) | CC(=O)NCc1cc(NC2CCC(F)(F)CC2)nc(-n2ccc(CF)n2)n1 [Compound 327, N-((6-((4,4-difluorocyclohexyl)amino)-2-(3-(fluoromethyl)-1H-pyrazol-1-yl)pyrimidin-4-yl)methyl)acetamide]
15 | + (+ means >1 uM) | O=C(NCc1cc(NC2CCC(F)(F)CC2)nc(-n2ccc(CF)n2)n1)C1CCC1 [Compound 328, N-((6-((4,4-difluorocyclohexyl)amino)-2-(3-(fluoromethyl)-1H-pyrazol-1-yl)pyrimidin-4-yl)methyl)cyclobutanecarboxamide]
16 | ++ (++ means 200 nM-1000 nM) | CC(C)(C)C(=O)N1CC(Oc2cc(NC3CCC(F)(F)CC3)nc(-c3nc(C(F)F)cs3)n2)C1 [Compound 329, 1-(3-((6-((4,4-difluorocyclohexyl)amino)-2-(4-(difluoromethyl)thiazol-2-yl)pyrimidin-4-yl)oxy)azetidin-1-yl)-2,2-dimethylpropan-1-one]

Row | SC100 | Compound
17 | ++ (++ means 200 nM-1000 nM) | COC(=O)N1CC(Oc2cc(NC3CCC(F)(F)CC3)nc(-c3nc(C(F)F)cs3)n2)C1 [Compound 330, methyl 3-((6-((4,4-difluorocyclohexyl)amino)-2-(4-(difluoromethyl)thiazol-2-yl)pyrimidin-4-yl)oxy)azetidine-1-carboxylate]
18 | + (+ means >1 uM) | CC1NC(c2cc(NC3CCC(F)(F)CC3)nc(-n3ccc(CF)n3)n2)=NO1 (stereo not shown) [Compound 331, N-(4,4-difluorocyclohexyl)-2-(3-(fluoromethyl)-1H-pyrazol-1-yl)-6-(5-methyl-4,5-dihydro-1,2,4-oxadiazol-3-yl)pyrimidin-4-amine]
19 | ++ (++ means 200 nM-1000 nM) | FC1(F)CCC(Nc2cc(N3CCOCC3)nc(-c3nc(C(F)(F)F)cs3)n2)CC1 [Compound 332, N-(4,4-difluorocyclohexyl)-6-morpholino-2-(4-(trifluoromethyl)thiazol-2-yl)pyrimidin-4-amine]
20 | + (+ means >1 uM) | O=C(NCc1cc(NC2CCC(F)(F)CC2)nc(-n2ccc(CF)n2)n1)C1COC1 [Compound 333, N-((6-((4,4-difluorocyclohexyl)amino)-2-(3-(fluoromethyl)-1H-pyrazol-1-yl)pyrimidin-4-yl)methyl)oxetane-3-carboxamide]
21 | + (+ means >1 uM) | Cc1nc(-c2cc(NC3CCC(F)(F)CC3)nc(-n3ccc(CF)n3)n2)no1 [Compound 334, N-(4,4-difluorocyclohexyl)-2-(3-(fluoromethyl)-1H-pyrazol-1-yl)-6-(5-methyl-1,2,4-oxadiazol-3-yl)pyrimidin-4-amine]
22 | ++ (++ means 200 nM-1000 nM) | COC(=O)N1CC(OCc2cc(NC3CCC(F)(F)CC3)nc(-n3ccc(CF)n3)n2)C1 [Compound 335, methyl 3-((6-((4,4-difluorocyclohexyl)amino)-2-(3-(fluoromethyl)-1H-pyrazol-1-yl)pyrimidin-4-yl)methoxy)azetidine-1-carboxylate]
23 | ++ (++ means 200 nM-1000 nM) | FCc1csc(-c2nc(NC3CCC(F)(F)CC3)cc(N3CCOCC3)n2)n1 [Compound 336, N-(4,4-difluorocyclohexyl)-2-(4-(fluoromethyl)thiazol-2-yl)-6-morpholinopyrimidin-4-amine]
24 | + (+ means >1 uM) | CC(O)c1csc(-c2nc(NC3CCC(F)(F)CC3)cc(OC3CN(C(=O)C(C)(C)C)C3)n2)n1 (stereo not shown) [Compound 337]
25 | ++ (++ means 200 nM-1000 nM) | FCc1ccn(-c2nc(NC3CCC(F)(F)CC3)cc(N3CC4(COC4)C3)n2)n1 [Compound 338, N-(4,4-difluorocyclohexyl)-2-(3-(fluoromethyl)-1H-pyrazol-1-yl)-6-(2-oxa-6-azaspiro[3.3]heptan-6-yl)pyrimidin-4-amine]
26 | ++ (++ means 200 nM-1000 nM) | FC(F)c1csc(-c2nc(NC3CCC(F)(F)CC3)cc(N3CCOCC3)n2)n1 [Compound 339, N-(4,4-difluorocyclohexyl)-2-(4-(difluoromethyl)thiazol-2-yl)-6-morpholinopyrimidin-4-amine]
27 | + (+ means >1 uM) | CC(O)c1csc(-c2nc(NC3CCC(F)(F)CC3)cc(N3CCOCC3)n2)n1 (stereo not shown) [Compound 340, 1-(2-(4-((4,4-difluorocyclohexyl)amino)-6-morpholinopyrimidin-2-yl)thiazol-4-yl)ethan-1-ol]
28 | ++ (++ means 200 nM-1000 nM) | CCC(=O)N1CC(Oc2cc(NC3CCC(F)(F)CC3)nc(-c3nc(CF)cs3)n2)C1 [Compound 341, 1-(3-((6-((4,4-difluorocyclohexyl)amino)-2-(4-(fluoromethyl)thiazol-2-yl)pyrimidin-4-yl)oxy)azetidin-1-yl)propan-1-one]
29 | ++ (++ means 200 nM-1000 nM) | CC(C)C(=O)N1CC(Oc2cc(NC3CCC(F)(F)CC3)nc(-c3nc(CF)cs3)n2)C1 [Compound 342, 1-(3-((6-((4,4-difluorocyclohexyl)amino)-2-(4-(fluoromethyl)thiazol-2-yl)pyrimidin-4-yl)oxy)azetidin-1-yl)-2-methylpropan-1-one]
30 | ++ (++ means 200 nM-1000 nM) | Cc1cc(C)n(-c2cc(C(O)c3ncco3)cc(NC3CCC(F)(F)CC3)n2)n1 (stereo not shown) [Compound 343, (2-((4,4-difluorocyclohexyl)amino)-6-(3,5-dimethyl-1H-pyrazol-1-yl)pyridin-4-yl)(oxazol-2-yl)methanol]
31 | + (+ means >1 uM) | COC(=O)N1CC(Oc2cc(NC3CCC(F)(F)CC3)nc(-c3nc(C(C)O)cs3)n2)C1 (stereo not shown) [Compound 344, methyl 3-((6-((4,4-difluorocyclohexyl)amino)-2-(4-(1-hydroxyethyl)thiazol-2-yl)pyrimidin-4-yl)oxy)azetidine-1-carboxylate]

— patent publication US10774064B2 (Cadent Therapeutics, Inc., priority 2016, dated 2020)
